Reference: US7879846B2, “Serine hydrolase inhibitors” (Kyorin Pharmaceutical Co.., Ltd., priority 2006, dated 2011)

target: T1, Human sputum neutrophil elastase (Homo sapiens, UniProt P08246); test: Inhibitor IC50 against human neutrophil elastase (fluorogenic MeOSuc-AAPV-AMC substrate); assay type: biochemical; conditions: 20 min preincubation, read-out: HNE IC50
T1 construct: purchased Elastin Products Co; host or cells: human sputum (natural source)
T1 sequence (P08246 30-247 limits assumed): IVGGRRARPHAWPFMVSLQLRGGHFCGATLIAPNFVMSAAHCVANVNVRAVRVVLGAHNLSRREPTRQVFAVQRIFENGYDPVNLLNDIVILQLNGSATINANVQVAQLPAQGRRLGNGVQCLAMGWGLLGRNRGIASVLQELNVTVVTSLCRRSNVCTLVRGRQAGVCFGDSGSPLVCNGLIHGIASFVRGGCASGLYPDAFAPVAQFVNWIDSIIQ
Method: Determination of Inhibitor IC50 Values Against Human Neutrophil Elastase
Human sputum neutrophil elastase (Elastin Products Co.) was diluted into Assay Buffer A (200 mM Tris pH 7.4, 1 mg/ml BSA) to a working concentration of 0.55 U/ml. […] DMSO alone was used as the negative control. MeOSuc-AAPV-AMC (Bachem) substrate was dissolved in DMSO to 20 mM and further diluted to 1 mM in Assay Buffer A immediately before use. Substrate was added to the elastase assay at a final concentration of 1×10^−4 M. The reaction was allowed to proceed for 20 minutes at room temperature and then quenched with acetic acid at a final concentration of 3% (v/v). […] Fluorescence intensity versus inhibitor concentration was plotted and fit to the Hill equation to quantify IC50 values.

IC50, 61 to 150 nM:
COc1cc(C(C)C)c2c(=O)oc(-c3cccnc3N3CC[C@H](N(C)C)C3)nc2c1 [Compound 111]
COc1cc(C(C)C)c2c(=O)oc(-c3cccnc3N(C)C3CCN(C)C3)nc2c1 (stereo not drawn) [Compound 117]
Cc1cccc2nc(-c3cccnc3OCCOCCOCCOCCO)oc(=O)c12 [Compound 57]
COCCN1CCN(c2ncccc2-c2nc3cc(OC)cc(C(C)C)c3c(=O)o2)CC1 [Compound 113]
CCCc1cc(OC)cc2nc(-c3cccnc3N3CCCN(C)CC3)oc(=O)c12 [Compound 156]
CCCc1cc(OC)cc2nc(-c3cccnc3N3CCN(CC4CC4)CC3)oc(=O)c12 [Compound 157]
Cc1cccc2nc(-c3cccnc3F)oc(=O)c12 [Compound 34]
Cc1ccc(Sc2ncccc2-c2nc3cccc(Cl)c3c(=O)o2)cc1 [Compound 28]
COc1cc(C(C)C)c2c(=O)oc(-c3cccnc3N3CCCN(C)CC3)nc2c1 [Compound 122]
CSc1ncccc1-c1nc2cccc(C)c2c(=O)o1 [Compound 23]
CCc1cccc2cc(-c3c[n+]([O-])ccc3Sc3ccc(Cl)cc3)oc(=O)c12 [Compound 86]

IC50, 16 to 60 nM:
COc1cc(C(C)C)c2c(=O)oc(-c3cccnc3-n3ccnc3)nc2c1 [Compound 109]
CCc1cc(OC)cc2nc(-c3cccnc3N3CCC(S(=O)(=O)O)CC3)oc(=O)c12 [Compound 209]
CCc1cc(OC)cc2nc(-c3cccnc3N3C[C@@H](CNC4CC4)[C@H](C)C3)oc(=O)c12 [Compound 259]
Cc1cccc2nc(-c3cccnc3N3CCC[C@H]3C(=O)OC(C)(C)C)oc(=O)c12 [Compound 32]
CCc1cc(OC)cc2nc(-c3ccc(N4CCN(C)CC4)nc3)oc(=O)c12 [Compound 207]
CCc1cc(OC)cc2nc(-c3cccnc3N3CCCC(CN4CCOCC4)C3)oc(=O)c12 (stereo not drawn) [Compound 243]
COc1cc(C2CCC2)c2c(=O)oc(-c3cccnc3N(C)CCN(C)C)nc2c1 [Compound 188]
CCc1cc(OC)cc2nc(-c3cccnc3N3CCCC(N(C)C)C3)oc(=O)c12 (stereo not drawn) [Compound 212]
CCCc1cc(OC)cc2nc(-c3cccnc3N3CC[C@H](N(C)C)C3)oc(=O)c12 [Compound 148]
CCc1cc(OC)cc2nc(-c3cccnc3N3CCC(N(C)C)CC3)oc(=O)c12 [Compound 220]
CCc1cccc2nc(-c3cccnc3N(C)C3CCN(C)C3)oc(=O)c12 (stereo not drawn) [Compound 153]
CCc1cc(OC)cc2nc(-c3cccc(N4CCN(C)CC4)n3)oc(=O)c12 [Compound 206]
CCc1cc(OC)cc2nc(-c3cccnc3N3C[C@H](CNC4CC4)[C@@H](C)C3)oc(=O)c12 [Compound 260]
COc1cc(C(C)C)c2c(=O)oc(-c3cnn(C)c3[N+](=O)[O-])nc2c1 [Compound 120]
Cc1cccc2nc(-c3cccnc3N3CC[C@@H](N(C)C)C3)oc(=O)c12 [Compound 178]
Cc1cccc2nc(-c3cccnc3N3CCN(CCN4CCOCC4)CC3)oc(=O)c12 [Compound 179]
CCc1cc(OC)cc2nc(-c3cccnc3N3CCC(CN(C)C)CC3)oc(=O)c12 [Compound 246]
CCc1cc(OC)cc2nc(-c3cccnc3N3CCN(CCCC#N)CC3)oc(=O)c12 [Compound 219]
Cc1cccc2nc(-c3cccnc3SCCS(=O)(=O)c3ccccc3)oc(=O)c12 [Compound 29]

IC50, < 15 nM:
CCc1cc(OC)cc2nc(-c3cccnc3N3CCCN(C)CC3)oc(=O)c12 [Compound 195]
C=CCN1CCN(c2ncccc2-c2nc3cc(OC)cc(CC)c3c(=O)o2)CC1 [Compound 193]
O=c1oc(-c2cccnc2-n2ccnc2)nc2cccc(C(F)(F)F)c12 [Compound 64]
CCc1cc(OC)cc2nc(-c3cccnc3N3CCN(c4nccs4)CC3)oc(=O)c12 [Compound 250]
CCc1cc(OC)cc2nc(-c3cccnc3N3CCC(CN4CCCC4)CC3)oc(=O)c12 [Compound 272]
C#CCN1CCN(c2ncccc2-c2nc3cccc(C(F)(F)F)c3c(=O)o2)CC1 [Compound 235]
CCc1cccc2nc(-c3cccnc3-n3ccnc3)oc(=O)c12 [Compound 67]
CCc1cc(OC)cc2nc(-c3cccnc3N3CC[C@H](N4CCOCC4)C3)oc(=O)c12 [Compound 262]
CCc1cccc2nc(-c3cccnc3N3CCN(CCN(C)C)CC3)oc(=O)c12 [Compound 162]
CCc1cc(OC)cc2nc(-c3cccnc3N3CC[C@@H](N(C)CCOC)C3)oc(=O)c12 [Compound 265]
CCc1cc(OC)cc2nc(-c3cccnc3N3CCN(CC4OCCO4)CC3)oc(=O)c12 [Compound 191]
CCOCCN1CCN(c2ncccc2-c2nc3cc(OC)cc(CC)c3c(=O)o2)CC1 [Compound 203]
CCc1cc(OC)cc2nc(-c3cccnc3-n3ccnc3)oc(=O)c12 [Compound 106]
CCc1cccc2nc(-c3cccnc3N3CC[N+](C)(CC4CC4)CC3)oc(=O)c12 [Compound 103]
CCc1cccc2nc(-c3cccnc3N3CCN4CCCC4C3)oc(=O)c12 (stereo not drawn) [Compound 104]
CCc1cc(OC)cc2nc(-c3cccnc3N(C)CC3CCN(C)C3)oc(=O)c12 (stereo not drawn) [Compound 244]
CCc1cc(OC)cc2nc(-c3cccnc3N3CCC(C)(C(=O)NCCN(CC)CC)CC3)oc(=O)c12 [Compound 274]
CCc1cc(OC)cc2nc(-c3cccnc3N3CCN(CC(=O)N4CCOCC4)CC3)oc(=O)c12 [Compound 197]
CCc1cc(OC)cc2nc(-c3cccnc3N3CCC(N(CC)CC)C3)oc(=O)c12 (stereo not drawn) [Compound 189]
CCc1cc(OC)cc2nc(-c3cccnc3N3CC[C@H](N4CCNC(=O)C4)C3)oc(=O)c12 [Compound 261]
CCc1cc(OC)cc2nc(-c3cccnc3N3CCC[C@H]3CN3CCCC3)oc(=O)c12 [Compound 271]
CCc1cc(OC)cc2nc(-c3cccnc3N3CC[C@H](N(CCO)CCO)C3)oc(=O)c12 [Compound 263]
CCc1cc(OC)cc2nc(-c3cccnc3N3CCN(CCC(=O)O)CC3)oc(=O)c12 [Compound 213]
CCc1cccc2nc(-c3cccnc3N3CCN(CCC#N)CC3)oc(=O)c12 [Compound 93]
CCc1cc(OC)cc2nc(-c3cccnc3N3CC[C@H]([N+](C)(C)C)C3)oc(=O)c12 [Compound 232, {1-[3-(5-Ethyl-7-methoxy-4-oxo-4H-benz[d][1,3]oxazin-2-yl)-pyridin-2-yl]-pyrrolidin-3-yl}-trimethyl-ammonium acetate]
CCc1cc(OC)cc2nc(-c3cccnc3N(C)CCCN(C)C)oc(=O)c12 [Compound 241]
CCc1cccc2nc(-c3cccnc3N3CCN(Cc4ccc(F)cc4)CC3)oc(=O)c12 [Compound 99]
CCc1cccc2nc(-c3cccnc3N(C)CCN(C)C)oc(=O)c12 [Compound 154]
CCc1cccc2nc(-c3cccnc3N3CC[N+](C)(CC(N)=O)CC3)oc(=O)c12 [Compound 101]
CCc1cccc2nc(-c3cccnc3N3CCC[C@H]3CN3CCCC3)oc(=O)c12 [Compound 98]
CCc1cccc2nc(-c3cccnc3N3CCN(CCN4CCOCC4)CC3)oc(=O)c12 [Compound 152]

IC50, > 150 nM:
COc1cc(C)c2c(=O)oc(-c3cccnc3-n3ccnc3)nc2c1 [Compound 83]
COc1cc(C(C)C)c2c(=O)oc(-c3cnn(C)c3N(C)CCN(C)C)nc2c1 [Compound 124]
Cc1cccnc1-c1nc2cccc(C)c2c(=O)o1 [Compound 19]
CCSc1ncccc1-c1nc2cccc(C)c2c(=O)o1 [Compound 40]
COc1cc(C(C)C)c2c(=O)oc(-c3cnn(C)c3N3CC[C@H](N(C)C)C3)nc2c1 [Compound 126]
Cc1ccc(Sc2ncccc2-c2nc3cccc(C)c3c(=O)o2)cc1 [Compound 24]
COc1cc(C(C)C)c2c(=O)oc(-c3cnn(C)c3N3CCN(CCN(C)C)CC3)nc2c1 [Compound 125]
O=c1oc(-c2cccnc2-n2ccnc2)nc2cccc(Cl)c12 [Compound 71]
Cc1cccc2nc(-c3cccnc3N3CCS(=O)(=O)CC3)oc(=O)c12 [Compound 62]
CCc1cc(OC)cc2nc(-c3ccnc(N4CCN(C)CC4)c3)oc(=O)c12 [Compound 205]
COCCN(CCOC)c1ncccc1-c1nc2cccc(C)c2c(=O)o1 [Compound 55]
COCCOCCOCCOCCOCCOCCOCCOc1ncccc1-c1nc2cc(OC)cc(C(C)C)c2c(=O)o1 [Compound 108]
COc1cc(C2CCC2)c2c(=O)oc(-c3cccnc3N3CCC[C@H](C(=O)O)C3)nc2c1 [Compound 174]
COc1cccc2nc(-c3cccnc3-n3ccnc3)oc(=O)c12 [Compound 66]
